Assay results published in patent publication US11660280B2, “Treatment of drug resistant gliomas” (OKLAHOMA MEDICAL RESEARCH FOUNDATION, priority 2017, dated 2023).

How the values were obtained:
[1] = tested on: MPG; test: RT-PCR gene-fold changes in human GBM cells; assay type: cell-based
Experimental: (§1) Quantification of mRNA by real-time quantitative RT-PCR for HIF-1a, MPG and MGMT. Total RNA from all cell lines with all treatments was purified with an RNeasy Mini Kit (Qiagen), and quantified by spectrophotometry (Nanodrop). cDNA was synthesized using SuperScript IV Reverse Transcriptase Kit (Invitrogen).
(§2) Target gene mRNA was amplified and measured by Bio-Rad CFX96™ Real Time System. Gene expression was determined using the SYBR Select Master Mix (Applied Biosystems). […] The reaction is characterized by the point during cycling when amplification of PCR products is first detected, rather than the amount of PCR product accumulated after a fixed number of cycles. The higher the starting quantity of the template, the earlier a significant increase in fluorescence is observed. The threshold cycle is defined as the fractional cycle number at which fluorescence passes a fixed threshold above the baseline. Fluorescence data were converted into cycle threshold measurements exported to Microsoft Excel. Glyceraldehyde-3-phosphatase dehydrogenase (GAPDH) mRNA expression levels were used as the quantitative internal control. For precise quantification, the mRNA expression level of each sample was normalized using the expression of the GAPDH gene.
(§3) All primers were synthesized by Integrated DNA Technologies. The primers used were: […]
(§4) were used to amplify 603-bp transcripts of MPG [9].

[2] = tested on: MGMT; test: RT-PCR gene-fold changes in human GBM cells; assay type: cell-based
Experimental: as §1, §2, §3, §4

[3] = tested on: TGFβ1; test: TGFβ1 protein levels (IHC, ELISA) in F98 gliomas; assay type: in vivo, rat
Experimental: Mice and Treatments. Animal studies were conducted in accordance to the OMRF IACUC (Institutional Animal Care and Use Committee) policies, which follow NIH guidelines. For the F98 rat glioma cell implantation model, F98 cells (10^5 in 10-μ1 volume) were intracerebrally implanted with a stereotaxic device (2 mm lateral and 2 mm anterior to the bregma, and at a 3 mm depth) in a total of 15 Fischer 344 rats (male 200-250 gm). The animals were divided into two groups once tumors reached 10-20 mm^3 in volume (as determined by MRI): OKN-007 treated (n=8) and untreated (UT) (n=7) groups. Rats were treated until tumors reached 200-250 mm^3 in volume or for a total of 4-6 weeks. For the G55 GBM cell implantation model, two-month-old male nude mice (Hsd:Athymic Nude-Foxnlnu mice; Harlan Inc., Indianapolis, IN) were implanted intracerebrally with human G55 xenograft cells (1×10^6) per mL suspended in 4 μL in cell culture media of 1% agarose solution. Once tumors reached 10-15 mm^3 (determined via MRI), mice were either treated daily with OKN-007 in the drinking water (150 mg/kg; 0.20% w/v for a 20 g mouse), or every 3 days with TMZ (30 mg/kg). OKN-007 was dissolved in water and made fresh every 2 days. Water bottles were weighed, and the amount of OKN-007 consumed per mouse was determined. […] The average intake of OKN-007 was approximately 140-150 mg/kg/day/mouse. […]

[4] = tested on: F98 tumors; test: RT-PCR of RNA isolated from F98 untreated and OKN-007-treated tumors; assay type: in vivo, rat; conditions: OKN-007-treated vs untreated F98 tumors
Experimental: Mice and Treatments. Animal studies were conducted in accordance to the OMRF IACUC (Institutional Animal Care and Use Committee) policies, which follow NIH guidelines. For the F98 rat glioma cell implantation model, F98 cells (10^5 in 10-μ1 volume) were intracerebrally implanted with a stereotaxic device (2 mm lateral and 2 mm anterior to the bregma, and at a 3 mm depth) in a total of 15 Fischer 344 rats (male 200-250 gm). The animals were divided into two groups once tumors reached 10-20 mm^3 in volume (as determined by MRI): OKN-007 treated (n=8) and untreated (UT) (n=7) groups. Rats were treated until tumors reached 200-250 mm^3 in volume or for a total of 4-6 weeks. For the G55 GBM cell implantation model, two-month-old male nude mice (Hsd:Athymic Nude-Foxnlnu mice; Harlan Inc., Indianapolis, IN) were implanted intracerebrally with human G55 xenograft cells (1×10^6) per mL suspended in 4 μL in cell culture media of 1% agarose solution. Once tumors reached 10-15 mm^3 (determined via MRI), mice were either treated daily with OKN-007 in the drinking water (150 mg/kg; 0.20% w/v for a 20 g mouse), or every 3 days with TMZ (30 mg/kg). OKN-007 was dissolved in water and made fresh every 2 days. Water bottles were weighed, and the amount of OKN-007 consumed per mouse was determined. […] The average intake of OKN-007 was approximately 140-150 mg/kg/day/mouse. TMZ was dissolved in 5% DMSO and 5% solutol-15 in sterile saline and administered via gavage. Mice were treated until the tumors reached 100-150 mm^3 or for a total of 4-6 weeks. All groups were stratified to ensure that tumor sizes were similar before initiation of treatment.
RNA isolation and preparation. For the rat F98 glioma study, all rats were euthanized after the last MRI examination. The brain of each animal was removed, and snap frozen in liquid nitrogen, before storage in a −80° C. freezer. Total RNA from all tumor tissues from all treatment groups was purified with an RNeasy Mini Kit (Qiagen), and quantified by spectrophotometry (Nanodrop). cDNA was synthesized using SuperScript IV Reverse Transcriptase Kit (Invitrogen).

CC(C)(C)[N+]([O-])=Cc1ccc(S(=O)(=O)O)cc1S(=O)(=O)O [OKN-007, 2,4-disulfonyl phenyl tert-butyl nitrone]
RT-PCR gene-fold change MPG ([1]; G55 cells (TMZ-resistant), UT 1.06): 4.52 fold
RT-PCR gene-fold change MPG ([1]; LN18 cells (TMZ-resistant), UT 1.00): 0.60 fold
RT-PCR gene-fold change MPG ([1]; LN229 cells (TMZ-sensitive), UT 1.10): 0.62 fold
RT-PCR gene-fold change MPG ([1]; T98 cells (TMZ-resistant), UT 1.10): 0.62 fold
RT-PCR gene-fold change MPG ([1]; U138 cells (TMZ-resistant), UT 1.13): 11.10 fold
RT-PCR gene-fold change MPG ([1]; U251 cells (TMZ-sensitive), UT 1.10): 0.81 fold
RT-PCR gene-fold change MGMT ([2]; LN18 cells (TMZ-resistant), UT 1.06): 0.42 fold
RT-PCR gene-fold change MGMT ([2]; T98 cells (TMZ-resistant), UT 1.00): 0.54 fold
RT-PCR gene-fold change MGMT ([2]; U251 cells (TMZ-sensitive), UT 1.00): 1.22 fold
TGFβ1 protein levels by immunohistochemistry compared to UT tumors ([3]; F98 gliomas): substantially reduced
TGFβ1 protein expression by ELISA compared to UT tumors ([3]; F98 tumor tissue lysates, p<0.001): significantly decreased
RT-PCR fold change in gene expression ADAMTS1 ([4]; Down-regulated): 3.57 fold
RT-PCR fold change in gene expression CD44 ([4]; Down-regulated): 3.03 fold
RT-PCR fold change in gene expression CDH3 ([4]; Down-regulated): 3.70 fold
RT-PCR fold change in gene expression COL1A1 ([4]; Down-regulated): 2.27 fold
RT-PCR fold change in gene expression COL2A1 ([4]; Down-regulated): 2.33 fold
RT-PCR fold change in gene expression COL3A1 ([4]; Down-regulated): 3.13 fold
RT-PCR fold change in gene expression COL4A1 ([4]; Down-regulated): 2.94 fold
RT-PCR fold change in gene expression COL4A2 ([4]; Down-regulated): 2.63 fold
RT-PCR fold change in gene expression COL5A1 ([4]; Down-regulated): 3.33 fold
RT-PCR fold change in gene expression COL6A1 ([4]; Down-regulated): 2.94 fold
RT-PCR fold change in gene expression COL8A1 ([4]; Down-regulated): 2.33 fold
RT-PCR fold change in gene expression CTGF ([4]; Down-regulated): 2.63 fold
RT-PCR fold change in gene expression ECM1 ([4]; Down-regulated): 2.86 fold
RT-PCR fold change in gene expression EMILIN1 ([4]; Down-regulated): 2.27 fold
RT-PCR fold change in gene expression FN1 ([4]; Down-regulated): 2.63 fold
RT-PCR fold change in gene expression ITAD ([4]; Down-regulated): 2.38 fold
RT-PCR fold change in gene expression ITGA2 ([4]; Down-regulated): 3.7 fold
RT-PCR fold change in gene expression ITGB3 ([4]; Down-regulated): 2.13 fold
RT-PCR fold change in gene expression ITGB4 ([4]; Down-regulated): 3.70 fold
RT-PCR fold change in gene expression LAMC1 ([4]; Down-regulated): 2.33 fold
RT-PCR fold change in gene expression MMP1 A ([4]; Down-regulated): 4.17 fold
RT-PCR fold change in gene expression MMP2 ([4]; Down-regulated): 2.86 fold
RT-PCR fold change in gene expression MMP3 ([4]; Down-regulated): 3.85 fold
RT-PCR fold change in gene expression MMP7 ([4]; Down-regulated): 2.86 fold
RT-PCR fold change in gene expression MMP8 ([4]; Down-regulated): 3.85 fold
RT-PCR fold change in gene expression MMP9 ([4]; Down-regulated): 7.14 fold
RT-PCR fold change in gene expression MMP12 ([4]; Down-regulated): 16.67 fold
RT-PCR fold change in gene expression MMP13 ([4]; Down-regulated): 50.00 fold
RT-PCR fold change in gene expression MMP14 ([4]; Down-regulated): 2.86 fold
RT-PCR fold change in gene expression POSTN ([4]; Down-regulated): 33.33 fold
RT-PCR fold change in gene expression RGDC ([4]; Down-regulated): 3.45 fold
RT-PCR fold change in gene expression SELE ([4]; Down-regulated): 2.86 fold
RT-PCR fold change in gene expression SELL ([4]; Down-regulated): 2.13 fold
RT-PCR fold change in gene expression SELP ([4]; Down-regulated): 2.13 fold
RT-PCR fold change in gene expression SPP1 ([4]; Down-regulated): 8.33 fold
RT-PCR fold change in gene expression TGFBI ([4]; Down-regulated): 2.22 fold
RT-PCR fold change in gene expression THBS2 ([4]; Down-regulated): 3.7 fold
RT-PCR fold change in gene expression TIMP1 ([4]; Down-regulated): 3.45 fold
RT-PCR fold change in gene expression CDH4 ([4]; Up-regulated): 4.06 fold
RT-PCR fold change in gene expression CNTN1 ([4]; Up-regulated): 15.03 fold
RT-PCR fold change in gene expression HAPLN1 ([4]; Up-regulated): 3.1 fold
RT-PCR fold change in gene expression MMP16 ([4]; Up-regulated): 4.72 fold
RT-PCR fold change in gene expression NCAM2 ([4]; Up-regulated): 11.63 fold
RT-PCR fold change in gene expression SGCE ([4]; Up-regulated): 8.06 fold
RT-PCR fold change in gene expression SPOC1 ([4]; Up-regulated): 11.08 fold
RT-PCR fold change in gene expression SYT1 ([4]; Up-regulated): 19.03 fold
RT-PCR fold change in gene expression VTN ([4]; Up-regulated): 3.03 fold
